# Reference: patent US6596728B1, “Substituted 1,3-diaryl-2-pyrid-2-yl-3-(pyrid-2-ylamino)propanol derivatives, process for their preparation, pharmaceuticals comprising these compounds and their use” (Aventis Pharma Deutschland GmbH, priority 1998, dated 2003)
# Target: T1, intestinal bile acid transportation system (Na+-dependent) in brush border membrane vesicles of the ileum (Oryctolagus cuniculus, UniProt Q28727)
# T1 construct: Preparation of Brush Border Membrane Vesicles from the Ileum of Rabbits; from tissue; host or cells: brush border membrane vesicles from terminal ileum of male New Zealand rabbits
# T1 sequence (Q28727 1-347): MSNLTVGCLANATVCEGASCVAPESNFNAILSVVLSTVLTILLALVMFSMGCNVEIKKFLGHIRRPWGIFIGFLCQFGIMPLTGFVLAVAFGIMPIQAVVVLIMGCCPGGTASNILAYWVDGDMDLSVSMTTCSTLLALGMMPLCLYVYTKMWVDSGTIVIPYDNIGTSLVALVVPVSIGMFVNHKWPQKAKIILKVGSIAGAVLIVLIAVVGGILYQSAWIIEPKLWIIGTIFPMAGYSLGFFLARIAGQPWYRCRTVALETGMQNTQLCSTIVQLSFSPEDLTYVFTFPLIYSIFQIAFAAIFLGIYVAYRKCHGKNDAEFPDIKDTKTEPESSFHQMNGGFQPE
# Test: Inhibition of Na+-dependent [3H]-taurocholate uptake in brush border membrane vesicles of the ileum of rabbits
# Format: biochemical
# Settings: quotient of the IC50Na of the reference substance taurochenodeoxycholate (TCDC) and of the test substance, 50 μM taurocholate, rabbit ileum vesicles
# Experimental: Biological testing of the compounds according to the present invention was carried out by determining the inhibition of [^3H]-taurocholate uptake in brush border membrane vesicles of the ileum of rabbits. The inhibition test was carried out as follows:
# 1. Preparation of Brush Border Membrane Vesicles from the Ileum of Rabbits
# Brush border membrane vesicles from the intestinal cells of the small intestine were prepared by the so-called Mg^2+ precipitation method. Male New Zealand rabbits (2 to 2.5 kg body weight) were sacrificed by intravenous injection of 0.5 ml T61®, an aqueous solution of 2.5 mg tetracaine HCl, […] embutramide and 25 mg mebezonium iodide. The small intestine was removed and rinsed with ice-cold physiological saline solution. The terminal 7/10 of the small intestine (measured in the oral-rectal direction, i.e., the terminal ileum, which contains the active Na^+-dependent bile acid transportation system) was used for preparation of the brush border membrane vesicles. The intestines were frozen in plastic bags under nitrogen at −80° C. For preparation of the membrane vesicles, the frozen intestines were thawed at 30° C. in a water bath. The mucosa was scraped off and suspended in 60 ml of ice-cold 12 mM TRIS/HCl buffer (pH 7.1)/300 mM mannitol, 5 mM EGTA/10 mg/l of phenylmethylsulfonyl fluoride/1 mg/l of trypsin inhibitor from soybeans (32 U/mg)/0.5 mg/l of trypsin inhibitor from bovine lung (193 U/mg)/5 mg/l of bacitracin. After dilution to 300 ml with ice-cold distilled water, the mixture was homogenized with an Ultraturrax (18-rod, IKA Werk Staufen, Germany) for 3 minutes at 75% of the maximum output by cooling with ice. After addition of 3 ml of 1 M MgCl2 solution (final concentration 10 mM), the mixture was allowed to stand for exactly 1 minute at 0° C. The cell membranes aggregate by addition of Mg^2+ and precipitate, with the exception of the brush border membranes. After centrifugation at 3000×g (5000 rpm, SS-34 rotor) for 15 minutes, the precipitate was discarded land the supernatant, which contains the brush border membranes, was centrifuged at 48000×g (20000 rpm, SS-34 rotor) for 30 minutes. The supernatant was discarded, and the precipitate was rehomogenized in 60 ml of 12 mM TRIS/HCl buffer (pH 7.1)/60 mM mannitol, 5 mM EGTA with a Potter Elvejhem homogenizer (Braun, Melsungen, 900 rpm, 10 strokes). After addition of 0.1 ml of 1 M MgCl2 solution and incubation for 15 minutes at 0° C., centrifugation was again carried out at 3000×g for 15 minutes. The supernatant was then centrifuged again at 48000×x g (20000 rpm, SS-34 rotor) for 30 minutes. The precipitate was taken up in 30 ml of 10 mM TRIS/HEPES buffer (pH 7.4)/300 mM mannitol and resuspended homogeneously by 20 strokes in a Potter Elvejhem homogenizer at 1000 rpm. After centrifugation at 48000×g (20000 rpm, SS-34 rotor) for 30 minutes, the precipitate was taken up in 0.5 to 2 ml of TRIS/HEPES buffer (pH 7.4)/280 mM mannitol (final concentration 20 mg/ml) and resuspended with the aid of a Tuberculin syringe with a 27-gauge needle. The vesicles were either used for transportation investigations directly after preparation or stored at −196° C. in 4 mg portions in liquid nitrogen.
# 2. Inhibition of the Na^+-dependent [^3H]taurocholate Uptake in Brush Border Membrane Vesicles of the Ileum
# The uptake of substrates in the brush border membrane vesicles described above was determined by means of the so-called membrane filtration technique. 10 μl of the vesicle suspension (100 μg of protein) were pipetted as drops onto the wall of a polystyrene incubation tube (11×70 mm) which contained the incubation medium with the corresponding ligands (90 μl). […]
row,Compound,IC50Na-TCDC (μmol) / IC50Na-compound (μmol)
1,O=C(Cc1ccsc1)Nc1ccccc1[C@@H](Nc1ccccn1)[C@H](c1ccccn1)[C@H](O)c1ccccc1 [Example 41],0.61
2,C#CCCC(=O)Nc1ccccc1[C@@H](Nc1ccccn1)[C@H](c1ccccn1)[C@H](O)c1ccccc1 [Example 31],1.13
3,Cc1ccccc1OCC(=O)Nc1ccccc1[C@@H](Nc1ccccn1)[C@H](c1ccccn1)[C@H](O)c1ccccc1 [Example 45],1.03
4,O=C(COc1ccc(F)cc1)Nc1ccccc1[C@@H](Nc1ccccn1)[C@H](c1ccccn1)[C@H](O)c1ccccc1 [Example 44],1.05
5,CC(C)(C)c1ccc(S(=O)(=O)Nc2ccccc2C(Nc2ccccn2)C(c2ccccn2)C(O)c2ccccc2)cc1 (centres unmarked) [Example 66],0.93
6,O=C(CNC(=O)OCc1ccccc1)Nc1ccccc1[C@@H](Nc1ccccn1)[C@H](c1ccccn1)[C@H](O)c1ccccc1 [Example 64],0.39
7,Cc1ccnc(SCC(=O)Nc2ccccc2[C@@H](Nc2ccccn2)[C@H](c2ccccn2)[C@H](O)c2ccccc2)n1 [Example 61],0.66
8,CC1(C)[C@@H]2CCC1(CS(=O)(=O)Nc1ccccc1C(Nc1ccccn1)C(c1ccccn1)C(O)c1ccccc1)C(=O)C2 (some centres unmarked) [Example 69],1.00
9,CCOCC(=O)Nc1ccccc1[C@@H](Nc1ccccn1)[C@H](c1ccccn1)[C@H](O)c1ccccc1 [Example 50],0.67
10,CS(=O)(=O)c1ccc(S(=O)(=O)Nc2ccccc2C(Nc2ccccn2)C(c2ccccn2)C(O)c2ccccc2)cc1 (centres unmarked) [Example 94],0.40
11,O=[N+]([O-])c1ccccc1S(=O)(=O)Nc1ccccc1C(Nc1ccccn1)C(c1ccccn1)C(O)c1ccccc1 (centres unmarked) [Example 65],0.84
12,CCCCCC#CC(=O)Nc1ccccc1[C@@H](Nc1ccccn1)[C@H](c1ccccn1)[C@H](O)c1ccccc1 [Example 60],0.62
13,O=C(Cc1ccc(Cl)cc1)Nc1ccccc1[C@@H](Nc1ccccn1)[C@H](c1ccccn1)[C@H](O)c1ccccc1 [Example 33],0.52
14,O=S(=O)(Nc1ccccc1C(Nc1ccccn1)C(c1ccccn1)C(O)c1ccccc1)c1cc(Cl)cc(Cl)c1O (centres unmarked) [Example 74],0.70
15,O=C(Cc1ccccc1C(F)(F)F)Nc1ccccc1[C@@H](Nc1ccccn1)[C@H](c1ccccn1)[C@H](O)c1ccccc1 [Example 38],0.38
16,O=C(/C=C/c1cccs1)Nc1ccccc1[C@@H](Nc1ccccn1)[C@H](c1ccccn1)[C@H](O)c1ccccc1 [Example 53],0.46
17,N#CC1(C(=O)Nc2ccccc2[C@@H](Nc2ccccn2)[C@H](c2ccccn2)[C@H](O)c2ccccc2)CC1 [Example 62],0.99
18,O=C(CSc1ncccn1)Nc1ccccc1[C@@H](Nc1ccccn1)[C@H](c1ccccn1)[C@H](O)c1ccccc1 [Example 56],1.15

row,Compound,IC50Na-TCDC (μmol) / IC50Na-compound (μmol)
1,CCCCOc1ccc(S(=O)(=O)Nc2ccccc2C(Nc2ccccn2)C(c2ccccn2)C(O)c2ccccc2)cc1 (centres unmarked) [Example 87],0.84
2,CN(CC(=O)Nc1ccccc1[C@@H](Nc1ccccn1)[C@H](c1ccccn1)[C@H](O)c1ccccc1)C(=O)OC(C)(C)C [Example 49],0.86
3,O=C(CN1C(=O)c2ccccc2C1=O)Nc1ccccc1[C@@H](Nc1ccccn1)[C@H](c1ccccn1)[C@H](O)c1ccccc1 [Example 47],1.00
4,COc1ccc(CCC(=O)Nc2ccccc2[C@@H](Nc2ccccn2)[C@H](c2ccccn2)[C@H](O)c2ccccc2)cc1OC [Example 35],0.36
5,Cc1c(C)c(S(=O)(=O)Nc2ccccc2C(Nc2ccccn2)C(c2ccccn2)C(O)c2ccccc2)c(C)c2c1OC(C)(C)CC2 (centres unmarked) [Example 83],0.24
6,O=C(Cc1cccs1)Nc1ccccc1[C@@H](Nc1ccccn1)[C@H](c1ccccn1)[C@H](O)c1ccccc1 [Example 34],0.81
7,O=S(=O)(Nc1ccccc1C(Nc1ccccn1)C(c1ccccn1)C(O)c1ccccc1)c1ccc(F)cc1 (centres unmarked) [Example 73],0.92
8,CCOC(=O)/C=C/C(=O)Nc1ccccc1[C@@H](Nc1ccccn1)[C@H](c1ccccn1)[C@H](O)c1ccccc1 [Example 57],0.79
9,O=S(=O)(Nc1ccccc1C(Nc1ccccn1)C(c1ccccn1)C(O)c1ccccc1)c1cc(C(F)(F)F)cc(C(F)(F)F)c1 (centres unmarked) [Example 78],0.27
10,O=C(O)c1ccc(S(=O)(=O)Nc2ccccc2C(Nc2ccccn2)C(c2ccccn2)C(O)c2ccccc2)cc1 (centres unmarked) [Example 91],0.92
11,O=S(=O)(Nc1ccccc1C(Nc1ccccn1)C(c1ccccn1)C(O)c1ccccc1)c1ccc(Cl)s1 (centres unmarked) [Example 82],0.79
12,N[C@@H](Cc1ccccc1)C(=O)N1CCC[C@H]1C(=O)Nc1ccccc1[C@@H](Nc1ccccn1)[C@H](c1ccccn1)[C@H](O)c1ccccc1 [Example 2c],1.06
13,CC(C)S(=O)(=O)Nc1ccccc1C(Nc1ccccn1)C(c1ccccn1)C(O)c1ccccc1 (centres unmarked) [Example 77],0.22
14,O=C(CCC(=O)c1ccc(Cl)cc1)Nc1ccccc1[C@@H](Nc1ccccn1)[C@H](c1ccccn1)[C@H](O)c1ccccc1 [Example 36],0.36
15,CN(C)c1cccc2c(S(=O)(=O)Nc3ccccc3C(Nc3ccccn3)C(c3ccccn3)C(O)c3ccccc3)cccc12 (centres unmarked) [Example 89],0.90
16,CC(=O)Nc1nc(C)c(S(=O)(=O)Nc2ccccc2C(Nc2ccccn2)C(c2ccccn2)C(O)c2ccccc2)s1 (centres unmarked) [Example 93],1.10
17,COc1cc(/C=C/C(=O)Nc2ccccc2[C@@H](Nc2ccccn2)[C@H](c2ccccn2)[C@H](O)c2ccccc2)ccc1O [Example 52],1.11
